pIC50: −log10 of the molar value. Like-named read-outs stand apart in the source and are kept apart here.
Legend:
[1] = target: His-tagged recombinant human Gal-3 (hGal-3) (Homo sapiens, UniProt P17931); experiment: Gal-3 HTRF assay (His-tagged hGal-3 / B-ASF); type: binding; conditions: 15 nM hGal-3, 15 nM B-ASF
Method: ASSAY BUFFER Composition: 25 mM HEPES, 100 mM NaCl, 0.005% Tween 20, 0.05% BSA prepared in sterile water (all reagents from Sigma).
• Positive Control: 100% DMSO (1 μL)+His-tagged hGal-3 (20 μL)+B-ASF (20 μL)+Anti-His Terbium Antibody (5 μL)+Strep d2 Antibody (5 μL). • Negative Control: 100% DMSO (1 μL)+His-tagged hGal-3 (20 μL)+Anti His Terbium Antibody (5 μL)+Strep d2 Aantibody (5 μL). Stocks Preparation:
PROTOCOL: The Gal-3 assays were performed in 384 white Opti plates in three replicates at room temperature with gentle shaking at 250-300 rpmFrom the original stocks, […] working stock concentrations of His-tagged recombinant human Gal-3 (hGal-3) and that of B-ASF were prepared. From the working stock, 20 μL of hGal-3 (15 nM) and 20 μL B-ASF (15 nM) were added to the plates. In Negative Control, only hGal-3 was added. A concentration range of 50× working stocks were prepared for the compounds in 100% DMSO. Aliquots of luL of the compounds were added to the wells and pre-incubated with 20 μL hGal-3 per well for 30 minutes Then 20 μL B-ASF wereadded and incubated for another 1 hour. To detect the signal, 5 μL (final conc. of 1.0 nM) terbium labelled Anti-His antibody was added and incubated for 30 min followed by adding 5 μL (final conc. of 20 nM) Streptavidin d2 and incubation for another 1 hour. The assay signal was detected using HTRF screen protocol (Excitation wavelength=340 nm, emission wavelength=615 nm/665 nm) on Envision 2104 Multilabel Reader. Data analysed using Toolset and Curve Master. Results are reported in the experimental section (IC50 in μM).

[2] = target: T1, hCRBN (NanoLuc-CRBN fusion construct in HEK-293 cells) (Homo sapiens, UniProt Q96SW2); experiment: CRBN BRET Target Engagement; type: cell-based; conditions: NanoLuc-CRBN transfected HEK-293 cells, BRET with CRBN Probe
T1 construct: expressed in transfected cells; host or cells: HEK-293
T1 sequence (Q96SW2 whole entry, the tested form may be a part): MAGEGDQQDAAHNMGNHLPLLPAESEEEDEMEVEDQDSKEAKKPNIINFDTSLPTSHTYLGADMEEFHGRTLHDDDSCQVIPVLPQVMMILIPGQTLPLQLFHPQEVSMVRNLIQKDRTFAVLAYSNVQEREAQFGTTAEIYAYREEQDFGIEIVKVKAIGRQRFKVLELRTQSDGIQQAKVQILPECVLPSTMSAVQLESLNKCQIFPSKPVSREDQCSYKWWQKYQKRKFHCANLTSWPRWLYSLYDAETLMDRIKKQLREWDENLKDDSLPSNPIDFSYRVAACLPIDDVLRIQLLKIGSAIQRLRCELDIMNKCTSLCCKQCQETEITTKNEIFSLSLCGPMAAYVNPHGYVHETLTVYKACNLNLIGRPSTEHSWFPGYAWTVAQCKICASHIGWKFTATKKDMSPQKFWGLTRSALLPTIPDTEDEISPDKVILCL
Method: CRBN BRET Target Engagement (hCRBN IC50 (μM))
NanoLuc-CRBN fusion construct was transfected in HEK-293 cells using FuGENE HD (Promega) according to the manufacturer's protocol. In brief, Nluc-CRBN was diluted into Transfection Carrier DNA (Promega) 1:10 (mass/mass), to which FuGENE HD was 1:3 (μg DNA:μL FuGENE HD). One part (vol) of DNA:FuGENE HD complexes were combined with 20 parts (vol) of HEK-293 cells suspended at a density of […]. Cells were incubated for ˜20 hr at 37° C./5% CO2. Following transfection, cells were washed and resuspended at 200,000 cells/mL in OptiMEM without phenol red (Gibco).
For BRET measurements, cells were seeded in a 384-well nonbinding surface plate (Corning) plate for a final count of 10,000 cells/well. Compounds were dissolved at 10 mM in dimethylsulfoxide (DMSO) and evaluated at eleven concentrations using a high concentration of […]. CRBN Probe was used for equilibrium measurements, employing a final concentration of approximately EC50-80. For live-cell measurements, 20 nM of CRBN Probe was added. For the live-cell assay conditions, the plates were incubated for 2 hours at 37° C./5% CO2. NanoBRET NanoGlo Substrate and Extracellular Nanoluc Inhibitor (Promega) were added according to manufacturer's guidelines. For lytic cell measurements, digitonin was added to the cells to a final concentration of 50 μg/mL and 20 nM of CRBN Probe was added. To measure NanoBRET in permeabilized cells, extracellular Nluc inhibitor was omitted during the detection step. For all BRET experiments, the Envision 2015 (Perkin Elmer) equipped with a BRET2 Enh mirror, BRET 647 nM/75 nM Bandwidth and BC703 460 nM/80 nM Bandwidth filters was used for readouts. Each read was integrated for 0.5 s.
To determine compound potency (IC50), BRET ratios for each dilution series was first normalized to a % Inhibition value via Equation 1, where “S” represents Sample BRET, “B” represents Background BRET, and “T” represents Total BRET. In this equation, the background control (B) consists of NanoLuc-CRBN expressing cells and no CRBN Probe. The total BRET Ratio (T) consists of NanoLuc-CRBN expressing cells, CRBN Probe, and an amount of DMSO at a concentration equivalent to that added when testing compounds.
Following normalization, the percent inhibition values are plotted as a function of compound concentration and fit to Equation 2. […]

[3] = target: T2, Gal3 (Human Galectin-3) in THP-1 cells (Homo sapiens, UniProt P17931); experiment: ELISA Gal3 Degradation Assay in THP-1 Cells; type: cell-based; conditions: 48 hours, culture media Gal3 by ELISA
T2 construct: host or cells: THP-1
T2 sequence (P17931 whole entry): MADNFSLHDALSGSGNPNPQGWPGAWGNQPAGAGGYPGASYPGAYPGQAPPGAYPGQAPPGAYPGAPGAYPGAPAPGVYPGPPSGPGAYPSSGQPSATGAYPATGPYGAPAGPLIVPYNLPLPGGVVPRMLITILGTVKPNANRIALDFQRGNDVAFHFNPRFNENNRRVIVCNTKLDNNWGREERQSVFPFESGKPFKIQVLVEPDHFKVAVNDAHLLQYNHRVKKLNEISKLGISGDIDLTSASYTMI
Method: [formula] ELISA Gal3 Degradation Assay in THP-1 Cells
THP-1 cells (ATCC, Cat #TIB-202), a human monocyte cell line derived from leukemia were plated at 2E6 cells/mL in 200 uL/well of RPMI 1640 (ThermoFisher, Cat #11835) in 96-well plates. Cells were treated with DMSO as a control and various concentrations of compounds for 48 hours. After the treatment, the culture media were collected. The PBS washed cell pellets were lysed in Lysis Buffer (Cell Signaling, Cat #9803) supplemented with 1XProtease Inhibitor Cocktail (Cell Signaling, Cat #5872). Gal3 levels in culture media and cell lysates were quantified by ELISA assays (Human Galectin-3 DuoSet ELISA kit, R&D Systems, Cat #DY1154) according to manufacturer's instructions. The cell culture media were also used for the assessment of cellular toxicity (LDH Assay kit, R&D Systems, DY994). The IC50 (degradation concentration at 50%) values were calculated based on the cellular Gal3 protein levels using DMSO as the control.

[4] = test 1, read-out: Supernatant (IC50) test 1
[5] = test 2, read-out: Supernatant (IC50) test 2

Chain of His-tagged recombinant human Gal-3 (hGal-3) (P17931 whole entry): as above

pIC50 [1] | pIC50 [2] | pIC50 [3, 4] | pIC50 [3, 5] | SMILES
7.09 | 6.11 |  |  | Cc1nc([C@@H]2O[C@H](CO)[C@H](O)[C@H](n3cc(-c4cc(F)c(Cl)c(F)c4)nn3)[C@H]2OCC(=O)NCCOCC(=O)Nc2ccc3c(c2)CN(C2CCC(=O)NC2=O)C3=O)n(-c2cc(Cl)ccc2C(F)(F)F)n1 (stereo partly drawn) [Example 1, 2-(((2S,3R,4S,5R,6R)-2-(1-(5-Chloro-2-(trifluoromethyl)phenyl)-3-methyl-1H-1,2,4-triazol-5-yl)-4-(4-(4-chloro-3,5-difluorophenyl)-1H-1,2,3-triazol-1-yl)-5-hydroxy-6-(hydroxymethyl)tetrahydro-2H-pyran-3-yl)oxy)-N-(2-(2-((2-(2,6-dioxopiperidin-3-yl)-1-oxoisoindolin-5-yl)amino)-2-oxoethoxy)ethyl)acetamide]
6.96 | 6.57 |  |  | Cc1nc([C@@H]2O[C@H](CO)[C@H](O)[C@H](n3cc(-c4cc(F)c(Cl)c(F)c4)nn3)[C@H]2OCC(=O)NCc2ccc(C(=O)Nc3ccc4c(c3)CN(C3CCC(=O)NC3=O)C4=O)cc2)n(-c2cc(Cl)ccc2C(F)(F)F)n1 (stereo partly drawn) [Example 2, 4-((2-(((2S,3R,4S,5R,6R)-2-(1-(5-Chloro-2-(trifluoromethyl)phenyl)-3-methyl-1H-1,2,4-triazol-5-yl)-4-(4-(4-chloro-3,5-difluorophenyl)-1H-1,2,3-triazol-1-yl)-5-hydroxy-6-(hydroxymethyl)tetrahydro-2H-pyran-3-yl)oxy)acetamido)methyl)-N-(2-(2,6-dioxopiperidin-3-yl)-1-oxoisoindolin-5-yl)benzamide]
7.25 | 6.22 |  |  | Cc1nc([C@@H]2O[C@H](CO)[C@H](O)[C@H](n3cc(-c4cc(F)c(Cl)c(F)c4)nn3)[C@H]2OCC(=O)N2CC(COc3ccc(C(=O)Nc4ccc5c(c4)CN(C4CCC(=O)NC4=O)C5=O)cc3)C2)n(-c2cc(Cl)ccc2C(F)(F)F)n1 (stereo partly drawn) [Example 7, 4-((1-(2-(((2S,3R,4S,5R,6R)-2-(1-(5-Chloro-2-(trifluoromethyl)phenyl)-3-methyl-1H-1,2,4-triazol-5-yl)-4-(4-(4-chloro-3,5-difluorophenyl)-1H-1,2,3-triazol-1-yl)-5-hydroxy-6-(hydroxymethyl)tetrahydro-2H-pyran-3-yl)oxy)acetyl)azetidin-3-yl)methoxy)-N-(2-(2,6-dioxopiperidin-3-yl)-1-oxoisoindolin-5-yl)benzamide]
7.07 | 5.05 |  |  | Cc1nc([C@@H]2O[C@H](CO)[C@H](O)[C@H](n3cc(-c4cc(F)c(Cl)c(F)c4)nn3)[C@H]2OCC(=O)N2CC(COc3ccc(C(=O)Nc4ccc5c(c4)CN(C4CCC(=O)N(C)C4=O)C5=O)cc3)C2)n(-c2cc(Cl)ccc2C(F)(F)F)n1 (stereo partly drawn) [Example 9, 4-((1-(2-(((2S,3R,4S,5R,6R)-2-(1-(5-Chloro-2-(trifluoromethyl)phenyl)-3-methyl-1H-1,2,4-triazol-5-yl)-4-(4-(4-chloro-3,5-difluorophenyl)-1H-1,2,3-triazol-1-yl)-5-hydroxy-6-(hydroxymethyl)tetrahydro-2H-pyran-3-yl)oxy)acetyl)azetidin-3-yl)methoxy)-N-(2-(1-methyl-2,6-dioxopiperidin-3-yl)-1-oxoisoindolin-5-yl)benzamide]
7.70 | 6.28 |  |  | Cc1nc([C@@H]2O[C@H](CO)[C@H](O)[C@H](n3cc(-c4cc(F)c(Cl)c(F)c4)nn3)[C@H]2OCC(=O)NCCOCCOCCNC(=O)COc2cccc3c2C(=O)N(C2CCC(=O)NC2=O)C3=O)n(-c2cc(Cl)ccc2C(F)(F)F)n1 (some centres unmarked) [Example 12]
7.18 | 6.09 |  |  | Cc1nc([C@@H]2O[C@H](CO)[C@H](O)[C@H](n3cc(-c4cc(F)c(Cl)c(F)c4)nn3)[C@H]2OCC(=O)NCCOCCOCCOCCNC(=O)c2ccc3c(c2)C(=O)N(C2CCC(=O)NC2=O)C3=O)n(-c2cc(Cl)ccc2C(F)(F)F)n1 (some centres unmarked) [Example 13]
7.60 | 5.82 |  |  | Cc1nc([C@@H]2O[C@H](CO)[C@H](O)[C@H](n3cc(-c4cc(F)c(Cl)c(F)c4)nn3)[C@H]2OCC(=O)NCCOCCOCCNC(=O)c2ccc3c(c2)C(=O)N(C2CCC(=O)NC2=O)C3=O)n(-c2cc(Cl)ccc2C(F)(F)F)n1 (some centres unmarked) [Example 14]
6.38 | 6.42 |  |  | Cc1nc([C@@H]2O[C@H](CO)[C@H](O)[C@H](n3cc(-c4cc(F)c(Cl)c(F)c4)nn3)[C@H]2OCC(=O)N[C@H]2C[C@H](Oc3ccc(C(=O)Nc4ccc5c(c4)CN(C4CCC(=O)NC4=O)C5=O)cc3)C2)n(-c2cc(Cl)ccc2C(F)(F)F)n1 (some centres unmarked) [Example 15]
7.16 | < 4.30 |  |  | Cc1nc([C@@H]2O[C@H](CO)[C@H](O)[C@H](n3cc(-c4cc(F)c(Cl)c(F)c4)nn3)[C@H]2OCC(=O)NCCOCCOCCNC(=O)c2ccc3c(c2)C(=O)N(C2CCC(=O)N(C)C2=O)C3=O)n(-c2cc(Cl)ccc2C(F)(F)F)n1 (some centres unmarked) [Example 16]
6.85 | < 4.30 |  |  | Cc1nc([C@@H]2O[C@H](CO)[C@H](O)[C@H](n3cc(-c4cc(F)c(Cl)c(F)c4)nn3)[C@H]2OCC(=O)N[C@H]2C[C@H](Oc3ccc(C(=O)Nc4ccc5c(c4)CN(C4CCC(=O)N(C)C4=O)C5=O)cc3)C2)n(-c2cc(Cl)ccc2C(F)(F)F)n1 (some centres unmarked) [Example 17]
7.30 |  | 7.29 | 7.38 | Cc1nc([C@@H]2O[C@H](CO)[C@H](O)[C@H](n3cc(-c4cc(F)c(Cl)c(F)c4)nn3)[C@H]2OCC(=O)NCCOCC(=O)N[C@H](C(=O)N2C[C@H](O)C[C@H]2C(=O)NCc2ccc(-c3scnc3C)cc2)C(C)(C)C)n(-c2cc(Cl)ccc2C(F)(F)F)n1 [Example 20]
6.53 |  | 5.47 | 5.48 | Cc1nc([C@@H]2O[C@H](CO)[C@H](O)[C@H](n3cc(-c4cc(F)c(Cl)c(F)c4)nn3)[C@H]2OCC(=O)NCCOCC(=O)NCc2ccc(S(=O)(=O)Nc3ccc(C)c4c(C#N)c[nH]c34)cc2)n(-c2cc(Cl)ccc2C(F)(F)F)n1 [Example 22]
6.00 |  | < 4.52 | < 4.52 | Cc1nc([C@@H]2O[C@H](CO)[C@H](O)[C@H](n3cc(-c4cc(F)c(Cl)c(F)c4)nn3)[C@H]2OCC(=O)N[C@H]2C[C@@H](Oc3ccc(C(=O)N[C@H](C(=O)N4C[C@H](O)C[C@H]4C(=O)NCc4ccc(-c5scnc5C)cc4)C(C)(C)C)nc3)C2)n(-c2cc(Cl)ccc2C(F)(F)F)n1 [Example 33]
